This is an account of results in US20220274980A1, “PHARMACOLOGICAL INHIBITORS OF THE ENL YEATS DOMAIN” (priority 2019, published 2022).

Each structure is given as a SMILES string. pIC50: −log10 of the molar value. Read-outs that look alike come from different tables or passages of the source.

Data set [1] has as its target T1, ENL YEATS domain (association with H3K27cr) (Homo sapiens, UniProt Q03111).
T1 sequence (Q03111 1-148): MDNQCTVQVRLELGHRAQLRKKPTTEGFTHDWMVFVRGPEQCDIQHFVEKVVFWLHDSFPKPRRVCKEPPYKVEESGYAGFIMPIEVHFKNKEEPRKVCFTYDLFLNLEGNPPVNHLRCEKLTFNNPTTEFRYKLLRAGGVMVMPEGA
The data set can be described thus: biochemical. Particulars: ENL (YEATS)-H3K27cr HTRF (IC50, μM). (In general: TR-FRET usually uses a lanthanide donor and a delayed reading to cut background.)

Data set [2] deals with T2, ENL(YEATS)-HiBiT (Homo sapiens, UniProt Q03111).
T2 sequence (Q03111 1-138 limits assumed): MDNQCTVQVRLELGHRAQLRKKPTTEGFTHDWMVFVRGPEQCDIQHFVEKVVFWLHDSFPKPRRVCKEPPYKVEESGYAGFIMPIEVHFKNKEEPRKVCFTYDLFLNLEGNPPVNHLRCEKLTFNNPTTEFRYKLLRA
Particulars: read-out: ENL YEATS CETSA (IC50); Table 2; OCI/AML-2 cells expressing ENL(YEATS)-HiBiT. Background: HiBiT is a short tag that completes a luciferase, so light tracks the accessible tagged protein.
Description: (§1) Cellular thermal shift assay (CETSA). […] Cells were transferred to 384-well (20,000 cells per well in 20 μL) or 1,536-well (3,000 cells per well in 4 μL) plates and drug was transferred using a 100 nL pin tool for 384-well plates or acoustic transfer (Labcyte, Echo Liquid Handler) for 1,536-well plates. Luminescent detection of HiBiT was performed by combining an equal volume of Nano-Glo HiBiT Lytic Reagent (Promega, HiBiT Lytic Detection System, Cat. No. N3040) in each well. […] Briefly, cells were treated with drug, washed with PBS, heated to various temperatures in a thermocycler, cooled to room temperature, lysed by three rounds of freeze-thaw, and then clarified lystaes were subjected to immunoblot analysis.

In data set [3] the target is T2, ENL(YEATS)-HiBiT. The data set can be described thus: cell-based.
Description: as §1
Data set [4] in a line: Half-life in mouse liver microsomes. It is filed as in vitro ADME. In general terms: Microsomes from liver hold many membrane-bound enzymes, among them those of drug oxidation.
The mark [5] stands for this setting: read-out: t1/2 (min) mouse liver microsomes.
The mark [6] stands for this setting: without NADPH, read-out: t1/2 mouse (min liver microsomes (without NADPH)).

By IC50 is commonly meant the concentration at which inhibition is half-maximal. The term pIC50 denotes −log10 of the IC50, conventionally taken in molar units. For the compound `O=C(NC1CC(F)(F)C1)c1ccc2nc(-c3ccccc3)cn2c1` [Compound 75], the IC50 in data set [1] (Table 1) and in data set [1] (Table 2) was above 50 µM each time. Also, the pIC50 at ENL(YEATS)-HiBiT [2] and at ENL(YEATS)-HiBiT [3] was below 4.30 each time.

In the case of `O=C(NC1Cc2ccccc2C1)c1ccc2nc(-c3ccccc3)cn2c1` [Compound 77], the IC50 in data set [1] (Table 1) and in data set [1] (Table 2) was above 50 µM throughout. Further, the pIC50 at ENL(YEATS)-HiBiT [2] and against ENL(YEATS)-HiBiT [3] was below 4.30 in each case.

Consider `O=C(N[C@H]1CCc2ccccc21)c1ccc2nc(-c3ccccc3)cn2c1` [Compound 79], for which the IC50 in data set [1] (Table 1) and in data set [1] (Table 2) was above 50 µM each time. For the same compound, the pIC50 on ENL(YEATS)-HiBiT [2] and against ENL(YEATS)-HiBiT [3] was below 4.30 each time.

For `O=C(NC1Cc2ccccc21)c1ccc2nc(-c3ccccc3)cn2c1` (stereo not shown) [Compound 80], the IC50 in data set [1] (Table 1) and in data set [1] (Table 2) was 3.03 µM each time. In addition, the pIC50 on ENL(YEATS)-HiBiT [2] and against ENL(YEATS)-HiBiT [3] was below 4.30 each time.

As for `CN(C(=O)c1ccc2nc(-c3ccccc3)cn2c1)C1CCC1` [Compound 81], the IC50 in data set [1] (Table 1) and in data set [1] (Table 2) was above 50 µM in each case. For the same compound, the pIC50 on ENL(YEATS)-HiBiT [2] and on ENL(YEATS)-HiBiT [3] was below 4.30 throughout.

Regarding `N#CC1(NC(=O)c2ccc3nc(-c4ccccc4)cn3c2)CCC1` [Compound 82], the IC50 in data set [1] (Table 1) and in data set [1] (Table 2) was above 50 µM each time. For the same compound, the pIC50 on ENL(YEATS)-HiBiT [2] and against ENL(YEATS)-HiBiT [3] was below 4.30 each time.

As to `O=C(NC1(c2ccccc2)CCC1)c1ccc2nc(-c3ccccc3)cn2c1` [Compound 83], the IC50 in data set [1] (Table 1) and in data set [1] (Table 2) was above 50 µM throughout. In addition, the pIC50 on ENL(YEATS)-HiBiT [2] and against ENL(YEATS)-HiBiT [3] was below 4.30 throughout.

For `O=C(NC1C2CC1C2)c1ccc2nc(-c3ccccc3)cn2c1` (stereo not shown) [Compound 84], the IC50 in data set [1] (Table 1) and in data set [1] (Table 2) was above 50 µM each time. Besides, the pIC50 on ENL(YEATS)-HiBiT [2] and on ENL(YEATS)-HiBiT [3] was below 4.30 each time.

Consider `CC1CC(NC(=O)c2ccc3nc(-c4ccccc4)cn3c2)C1` (stereo not shown) [Compound 87], for which the IC50 in data set [1] (Table 1) and in data set [1] (Table 2) was 4.6 µM in each case. Also, the pIC50 on ENL(YEATS)-HiBiT [2] and on ENL(YEATS)-HiBiT [3] was below 4.30 throughout.

Turning to `COC1CCN(CCNS(=O)(=O)Nc2cccc(-c3cn4cc(C(=O)NC5CCC5)ccc4n3)c2)CC1` [Compound 94], the IC50 in data set [1] (Table 1) and in data set [1] (Table 2) was 0.197 µM each time. Moreover, the half-life in data set [4] (setting [5]) was determined as 5.23 min; in data set [4] (setting [6]) it was 774 min. Further, on ENL(YEATS)-HiBiT [3], the pIC50 is 5.82.

As to `O=C(NC1CCC1)c1ccc2nc(-c3cccc(NS(=O)(=O)NCCN4CCCCC4=O)c3)cn2c1` [Compound 95], the IC50 in data set [1] (Table 1) and in data set [1] (Table 2) was 0.21 µM throughout. Also, the half-life turned out to be 6.07 min in data set [4] (setting [5]) and 504 min in data set [4] (setting [6]). This compound gave a pIC50 against ENL(YEATS)-HiBiT [3] of 5.98.

As to `CC1CCN(CCNS(=O)(=O)Nc2cccc(-c3cn4cc(C(=O)NC5CCC5)ccc4n3)c2)CC1` [Compound 100], the IC50 in data set [1] (Table 1) and in data set [1] (Table 2) was 0.029 µM in each case. The half-life in data set [4] (setting [5]) is 4.04 min; in data set [4] (setting [6]) it was 463 min. The compound further gave a pIC50 against ENL(YEATS)-HiBiT [3] of 6.62.

As for `O=C(N[C@@H]1CC[C@@H]1c1ccccc1)c1ccc2nc(-c3ccccc3)cn2c1` [Compound 115], the IC50 in data set [1] (Table 1) and in data set [1] (Table 2) was above 50 µM each time. The pIC50 on ENL(YEATS)-HiBiT [2] and against ENL(YEATS)-HiBiT [3] was below 4.30 each time.

Regarding `CC(C)C1CC(NC(=O)c2ccc3nc(-c4ccccc4)cn3c2)C1` (stereo not shown) [Compound 119], the IC50 in data set [1] (Table 1) and in data set [1] (Table 2) was above 50 µM in each case. Moreover, the pIC50 on ENL(YEATS)-HiBiT [2] and on ENL(YEATS)-HiBiT [3] was below 4.30 in each case.

In the case of `CC(C)(C)C1CC(NC(=O)c2ccc3nc(-c4ccccc4)cn3c2)C1` (stereo not shown) [Compound 120], the IC50 in data set [1] (Table 1) and in data set [1] (Table 2) was above 50 µM throughout. Further, the pIC50 on ENL(YEATS)-HiBiT [2] and against ENL(YEATS)-HiBiT [3] was below 4.30 each time.

As for `Cc1ccc(C2CCC2NC(=O)c2ccc3nc(-c4ccccc4)cn3c2)c(C)c1` (stereo not shown) [Compound 123], the IC50 in data set [1] (Table 1) and in data set [1] (Table 2) was above 50 µM each time. Further, the pIC50 at ENL(YEATS)-HiBiT [2] and against ENL(YEATS)-HiBiT [3] was below 4.30 throughout.
